According to ChEMBL document CHEMBL1158262, “Novel beta-methoxyacrylates of the 9-methoxystrobilurin and oudesmansin classes produced by the basidiomycete Favolaschia pustulosa” (J Nat Prod, 1996):
pIC50: −log10 of the molar value. Converted amounts (≈) assume the structure as drawn. The source made the active and inactive calls. The rule behind the calls is not given here.

Legend:
JIYOYE [1] = assay: Cytotoxicity against human Jijoye cells after 2 days by XTT assay; format: functional, cell-based
JIYOYE [2] = assay: Cytotoxicity against human Jijoye cells after 5 days by XTT assay; format: functional, cell-based; conditions: 120 h
Bacillus subtilis = assay: Antibacterial activity against Bacillus subtilis after 18 hrs by serial dilution method; format: functional
Candida albicans = assay: Antifungal activity against Candida albicans after 18 hrs by serial dilution method; format: functional

SMILES: C=CC(C)(C)OC(C)(C)C1COc2ccc(/C=C/C(OC)=C(C)\C(=C/OC)C(=O)OC)cc2O1 (stereo not given)
- Activity (JIYOYE [1]): inactive
- pIC50 (JIYOYE [2]): 8.74
- CC50 (JIYOYE [2]; read-out: LC50 (the source's name)): 1.8 nM
- MIC (Bacillus subtilis): 0.9 µM (≈ 0.425 µg/mL)
- MIC (Candida albicans): 6 µM (≈ 2.84 µg/mL)
